Structures can show the parent of a compound that is named as a salt.
Tests used:
FtsZ [1] = molecular target: T1, FtsZ (Escherichia coli, UniProt P0A9A6); test: FtsZ GTPase assay (BIOMOL Green, Pi release); format: biochemical, E. coli; conditions: for inhibition mechanism on FtsZ GTPase activity: from KM and Vmax changes at 40 µM compound; for Vmax (Pi Released/min): in presence of 40 µM compound, 6 µM FtsZ, pH 6.8, untreated 0.63 ± 0.01
T1 construct: made in house; host or cells: E. coli
Description: The functional effect of the berberine analogues 1c,d,f,i, and 1-2g,h on FtsZ was investigated by enzymatic assays. A recombinant form of FtsZ was produced in E. coli, purified according to [21], and used for binding assays. The GTPase activity of the FtsZ protein was assayed in the presence of the berberine-related compounds at 40 μM concentration and was monitored in comparison with the untreated protein at different GTP concentrations. The kinetic parameters were calculated according to the Michaelis–Menten equation using GraphPad Prism 8 for all the berberine-related compounds. The software returned KM (μM) and Vmax (Pi released/min) kinetic parameters that indicated the mechanism of inhibition exerted by each compound.
The determination of the inhibition constant Ki for these compounds was performed to further investigate the mode of inhibition and clarified the potency of the competitive inhibitors. The Ki values were calculated performing kinetic analyses at different concentrations of competitive inhibitors (20 μM, 40 μM, and 60 μM).
The FtsZ GTPase assay was performed using 6 μM FtsZ in reaction buffer 25 mM PIPES/NaOH, pH 6.8. The mixture containing FtsZ was incubated for 30 min at 30 °C, and different concentrations of GTP (from 0 µM to 500 µM) were added for a reaction time of 10 min, either in the absence or in the presence of 40 µM 1c, 1d, 1f, 1i, 1g, 1h, 2g, and 2h. The reaction was performed for 10 min and stopped by the addition of 100 µL BIOMOL Green reagent. The amount of Pi released during the assembly of FtsZ was monitored using BIOMOL Green phosphate reagent (Biomol, Milan, Italy) after incubation at 25 °C for 25 min by measuring the absorbance at 620 nm. The negative control (without enzyme) was subtracted from all the readings. The experiment was performed in duplicate. The data were elaborated in order to report U/mg VS substrate concentration, and kinetic parameters were fitted by nonlinear regression with GraphPad Prism 8 (GraphPad Software, San Diego, CA, USA). The inhibition constant (Ki) for all competitive inhibitors was calculated performing different kinetic analyses in the presence of 20, 40, and 60 µM of compounds and using the following equation: Ki=I/α−1 where α=KMapp/KM

FtsZ [2] = molecular target: T1, FtsZ; test: Fluorescence binding assay (quenching of compound fluorescence by FtsZ); parameters: species or system E. coli; conditions: dissociation constant Kd, excitation 295 nm, emission 327 nm, 20 °C
Description: Therefore, the intrinsic fluorescence of compound 1c was monitored at increasing concentrations of recombinant FtsZ. The sample was excited at 295 nm, and the fluorescence emission of the compound 1c was recorded.
A 1.5 mL solution containing the 1c compound was titrated by successive additions of FtsZ protein (from 0.010 to 0.120 µM). Titrations were done manually, and fluorescence spectra were measured in the range of 280–500 nm at the excitation wavelength of 295 nm. The fluorescence spectra were recorded using a Horiba Scientific Fluoromax-4 spectrofluorometer, using a quartz cell with an optical path of 1 cm, under controlled temperature conditions (Peltier control system at 20 °C). All experiments were carried out in duplicate. The change in the fluorescence intensity of the reaction set was fitted into the “one site-specific binding” equation of GraphPad Prism 8 (GraphPad Software, San Diego, CA, USA).
Figure 6 Fluorescence binding assay of compound 1c with FtsZ. (a) Emission fluorescence spectra at different concentrations of FtsZ. (b) ΔF at 325 nm vs FtsZ concentration. Experimental data were adjusted to a non-linear regression, and the Kd binding constant was estimated using GraphPad Prism 8. The experiments were performed in duplicate, and the standard deviation is reported as error bars.

FtsZ [3] = molecular target: T1, FtsZ; test: FtsZ polymerization assay by sedimentation, SDS-PAGE densitometry; format: biochemical, E. coli; conditions: inhibitor concentration 60 µM, 150 µM GTP
Description: Inhibition of the GTPase activity of FtsZ might prevent the polymerization of the protein, which is well known to occur in the presence of GTP. We then investigated the effect of berberine analogues on the polymerization of FtsZ. The recombinant protein was incubated with 150 µM GTP in the absence and in the presence of increasing concentrations of berberine-related compounds. The FtsZ filaments were purified by centrifugation, analysed by SDS-PAGE, and the amount of polymerized protein was determined by densitometric analysis of the corresponding Coomassie-stained gel bands.
Assays for FtsZ polymerization by sedimentation were performed by incubating 6 μM FtsZ with 150 µM GTP in 25 mM PIPES/NaOH, pH 6.8 for 60 min at 25 °C. The assays were carried out in the presence and in the absence of 20 μM, 40 μM, and 60 μM of berberine analogues. The reaction mixtures were centrifuged for 60 min at 14,000 rpm, the pellets were run on 12.5% sodium dodecyl sulphate (SDS)-polyacrylamide gels, and stained by Coomassie blue. Subsequently, the images of the gels were acquired by ChemiDocTM, and the relative amount of FtsZ in the bands was determined densitometrically using the Quantity One software.
Figure 3 Polymerization assay of recombinant FtsZ (6 µM) was carried out in 25 mM PIPES/NaOH, pH 6.8, and 150 µM of GTP in the presence of berberine analogues. […]

FtsZ [4] = molecular target: T1, FtsZ; test: TEM microscopy of FtsZ protofilaments; format: biochemical, E. coli; conditions: 60 µM compound, 150 µM GTP
Description: The capability of berberine analogue 1i to inhibit FtsZ polymerization was also assessed by TEM microscopy, by analysing the FtsZ protofilaments of in the presence of 60 µM 1i in comparison with the untreated sample.
FtsZ polymerization reaction solutions were diluted 1:10 in polymerization buffer in the presence and in the absence of 60 µM 1c and 1i. Then, 5 µL drops of the samples for TEM analysis were placed on a carbon-coated copper TEM grid for 20 min. Excess solution was wicked away with filter paper. Negative staining with 1% phosphotungstic acid (PTA) solution at pH 7.0 was carried out by depositing a drop of PTA solution on the grid for 1 min and then blotted dry with filter paper. The grid was allowed to dry, and images were collected using a FEI TECNAI G2 S-twin apparatus operating at 120 kV (LaB6 source).
Figure 4 Transmission electron microscopic images of FtsZ in the absence (a) and in the presence of 1i inhibitors (b). The protofilaments are seen to be polymerized in an organized manner in the absence of inhibitor (a). 1i at 60 μM concentrations inhibit the FtsZ polymerization. Experimental conditions for all the FtsZ polymerization studies were […], PIPES 25 mM pH 6.8, KCl 50 mM, and 150 µM GTP.

E. coli = test: Minimum inhibitory concentration determination; format: cell-based; conditions: Escherichia coli, 24 h, read-out: MIC E. coli
Description: Finally, we evaluated the in vitro antimicrobial activity of the newly synthesized berberine analogues (2g,h) on E. coli strain. The Minimal Inhibitory Concentrations (MICs) of both compounds were determined as the lowest concentration showing no visible growth after 24 h of incubation. The MIC values for 2g and 2h are reported in Table 4, together with the most interesting compounds previously reported.
In brief, the bacterial strain was incubated overnight in LB at 37 °C. The cultures were diluted approximately to 5 × 10^5 CFU/mL, and 50 μL of bacterial suspension was added to ten wells and incubated with serial dilutions of berberine analogues from an initial concentration of 500 µM. The sterility control well contained 100 μL of LB, while the growth control well contained 100 μL of microbial suspension. […] All determinations of all assays were performed in triplicate.

T1 sequence (P0A9A6 whole entry): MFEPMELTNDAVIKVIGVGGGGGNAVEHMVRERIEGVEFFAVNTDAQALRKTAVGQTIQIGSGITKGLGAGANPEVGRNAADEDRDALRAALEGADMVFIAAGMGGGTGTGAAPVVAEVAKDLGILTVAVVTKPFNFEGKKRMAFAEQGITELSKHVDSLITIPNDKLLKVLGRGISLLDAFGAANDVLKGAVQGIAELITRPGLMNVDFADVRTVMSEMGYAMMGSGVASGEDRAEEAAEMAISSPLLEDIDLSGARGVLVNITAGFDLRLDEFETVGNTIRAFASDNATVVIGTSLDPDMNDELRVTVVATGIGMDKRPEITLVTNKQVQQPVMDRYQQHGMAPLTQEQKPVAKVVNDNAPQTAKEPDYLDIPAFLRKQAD

COc1cccc(CN(C)CCc2ccc3c(c2)OCO3)c1OC [1c]
Ki (FtsZ [1]): 25 µM | inhibition mechanism on FtsZ GTPase activity (FtsZ [1]): classical competitive inhibition mechanism | Vmax (Pi Released/min) (FtsZ [1]): 0.54 ± 0.03 Pi released/min | Kd (FtsZ [2]): 0.0266 µM

CCN(CCc1ccc2c(c1)OCO2)Cc1cccc(OC)c1OC [1d]
Ki (FtsZ [1]): 44 µM | inhibition mechanism on FtsZ GTPase activity (FtsZ [1]): classical competitive inhibition mechanism | Vmax (Pi Released/min) (FtsZ [1]): 0.58 ± 0.01 Pi released/min

CCCCCCN(CCc1ccc2c(c1)OCO2)Cc1cccc(OC)c1OC [1f]
inhibition mechanism on FtsZ GTPase activity (FtsZ [1]): non-competitive inhibition mechanism | Vmax (Pi Released/min) (FtsZ [1]): 0.35 ± 0.01 Pi released/min

Clc1ccc(CNCCc2ccc3c(c2)OCO3)cc1 [1g]
Ki (FtsZ [1]): 41 µM | inhibition mechanism on FtsZ GTPase activity (FtsZ [1]): classical competitive inhibition mechanism | Vmax (Pi Released/min) (FtsZ [1]): 0.60 ± 0.02 Pi released/min

c1ccc2c(CNCCc3ccc4c(c3)OCO4)cccc2c1 [1h]
Ki (FtsZ [1]): 119 µM | inhibition mechanism on FtsZ GTPase activity (FtsZ [1]): classical competitive inhibition mechanism | Vmax (Pi Released/min) (FtsZ [1]): 0.59 ± 0.01 Pi released/min

O=[N+]([O-])c1ccccc1CNCCc1ccc2c(c1)OCO2 [1i]
inhibition mechanism on FtsZ GTPase activity (FtsZ [1]): non-competitive inhibition mechanism | amount of polymerized FtsZ (FtsZ [3]): almost negligible | FtsZ protofilaments observed by TEM (FtsZ [4]): no protofilaments could be observed

CN(CCc1ccc2c(c1)OCO2)Cc1ccc(Cl)cc1 [2g, 2-(1,3-Benzodioxol-5-yl)-N-[(4-chlorobenzyl]-N-methylethan-1-amine hydrochloride]
inhibition mechanism on FtsZ GTPase activity (FtsZ [1]): acompetitive inhibitory mechanism | MIC (E. coli): 128 µM

CN(CCc1ccc2c(c1)OCO2)Cc1cccc2ccccc12.Cl [2h, 2-(2H-1,3-Benzodioxol-5-yl)-N-methyl-N-[(naphthalen-1-yl)methyl]ethan-1-amine hydrochloride]
Ki (FtsZ [1]): 51 µM | inhibition mechanism on FtsZ GTPase activity (FtsZ [1]): classical competitive inhibition mechanism | Vmax (Pi Released/min) (FtsZ [1]): 0.58 ± 0.01 Pi released/min | MIC (E. coli): > 512 µM | melting point: 188 to 190 °C

— article PMC10057996, “A Comparative Study of the Inhibitory Action of Berberine Derivatives on the Recombinant Protein FtsZ of E. coli” (International Journal of Molecular Sciences, 2023)
